Test results reported in PubChem BioAssay AID1259407 (Chemical Carcinogenesis Research Information System (CCRIS), 2018).
The source made the active and inactive calls. How the calls were made is not given here.

Tested on: CCRIS mutagenicity, Ames/micronucleus/aberration tests
Test: CCRIS mutagenicity studies
[1] = Test System: AMES SALMONELLA TYPHIMURIUM, Strain/Indicator: TA98, Metabolic Activation: NONE, Method: PREINCUBATION
[2] = Test System: AMES SALMONELLA TYPHIMURIUM, Strain/Indicator: TA98, Metabolic Activation: RAT, LIVER, S-9, AROCLOR 1254, Method: PREINCUBATION
[3] = Test System: AMES SALMONELLA TYPHIMURIUM, Strain/Indicator: TA98, Metabolic Activation: RAT, LIVER, S-9, AROCLOR 1254, Method: STANDARD PLATE
[4] = Test System: AMES SALMONELLA TYPHIMURIUM, Strain/Indicator: TA100, Metabolic Activation: NONE, Method: PREINCUBATION
[5] = Test System: AMES SALMONELLA TYPHIMURIUM, Strain/Indicator: TA100, Metabolic Activation: RAT, LIVER, S-9, AROCLOR 1254, Method: PREINCUBATION
[6] = Test System: AMES SALMONELLA TYPHIMURIUM, Strain/Indicator: TA1535, Metabolic Activation: NONE, Method: PREINCUBATION

**Q.** How did the mutagenic call (Test System: AMES SALMONELLA TYPHIMURIUM, Strain/Indicator: TA98(1,8-DNP6), Metabolic Activation: NONE, Method: PREINCUBATION) turn out when `O=[N+]([O-])c1cc(O)c2ccc3cccc4ccc1c2c34` was run?
**A.** Its mutagenic call is “active; positive”.

**Q.** What about the mutagenic call (Test System: AMES SALMONELLA TYPHIMURIUM, Strain/Indicator: TA98(1,8-DNP6), Metabolic Activation: NONE, Method: STANDARD PLATE) of the same compound?
**A.** Its mutagenic call is “active; positive”.

**Q.** What about the mutagenic call (Test System: AMES SALMONELLA TYPHIMURIUM, Strain/Indicator: TA98(1,8-DNP6), Metabolic Activation: RAT, LIVER, S-9, AROCLOR 1254, Method: STANDARD PLATE) of the same compound?
**A.** The mutagenic call was “active; positive”.

**Q.** What about the mutagenic call (Test System: AMES SALMONELLA TYPHIMURIUM, Strain/Indicator: TA98(NR), Metabolic Activation: NONE, Method: PREINCUBATION) of the same compound?
**A.** The mutagenic call was “active; positive”.

**Q.** What about the mutagenic call (Test System: AMES SALMONELLA TYPHIMURIUM, Strain/Indicator: TA98(NR), Metabolic Activation: NONE, Method: STANDARD PLATE) of the same compound?
**A.** Its mutagenic call is “active; positive”.

**Q.** And the mutagenic call (Test System: AMES SALMONELLA TYPHIMURIUM, Strain/Indicator: TA98(NR), Metabolic Activation: RAT, LIVER, S-9, AROCLOR 1254, Method: STANDARD PLATE)?
**A.** The mutagenic call was “active; positive”.

**Q.** What about the mutagenic call [1] of the same compound?
**A.** The mutagenic call was “active; positive”.

**Q.** What about the mutagenic call [2] of the same compound?
**A.** Its mutagenic call is “active; positive”.

**Q.** And the mutagenic call [3]?
**A.** The mutagenic call was “active; positive”.

**Q.** What about the mutagenic call [4] of the same compound?
**A.** Its mutagenic call is “active; positive”.

**Q.** What about the mutagenic call [5] of the same compound?
**A.** The mutagenic call was “active; positive”.

**Q.** What about the mutagenic call (Test System: AMES SALMONELLA TYPHIMURIUM, Strain/Indicator: YG1024, Metabolic Activation: NONE, Method: STANDARD PLATE) of the same compound?
**A.** Its mutagenic call is “active; positive”.

**Q.** What about the mutagenic call (Test System: AMES SALMONELLA TYPHIMURIUM, Strain/Indicator: YG1024, Metabolic Activation: RAT, LIVER, S-9, AROCLOR 1254, Method: STANDARD PLATE) of the same compound?
**A.** Its mutagenic call is “active; positive”.

**Q.** And the mutagenic call (Test System: CHINESE HAMSTER OVARY, Strain/Indicator: CHO (HGPRT)/6-THIOGUANINE, Metabolic Activation: NONE, Method: STANDARD PLATE)?
**A.** The mutagenic call was “inactive; negative”.

**Q.** What about the mutagenic call (Test System: CHINESE HAMSTER OVARY, Strain/Indicator: CHO (HGPRT)/6-THIOGUANINE, Metabolic Activation: RAT, LIVER, S-9, AROCLOR 1254, Method: STANDARD PLATE) of the same compound?
**A.** Its mutagenic call is “active; positive”.

**Q.** And the mutagenic call (Test System: UDS RODENT HEPATOCYTES, Strain/Indicator: THY INCORP, Metabolic Activation: NONE, Method: AUTORADIOGRAPHY)?
**A.** Its mutagenic call is “inactive; negative”.

**Q.** `CCCC(=O)OCc1ccc([N+](=O)[O-])cc1` was tested. Which mutagenic call [1] did it give?
**A.** The mutagenic call was “inactive; negative”.

**Q.** And the mutagenic call (Test System: AMES SALMONELLA TYPHIMURIUM, Strain/Indicator: TA100(NR), Metabolic Activation: NONE, Method: PREINCUBATION)?
**A.** The mutagenic call was “inactive; negative”.

**Q.** And the mutagenic call [4]?
**A.** Its mutagenic call is “active; positive”.

**Q.** And the mutagenic call [5]?
**A.** Its mutagenic call is “active; positive”.

**Q.** Which results are given for `O=[N+]([O-])c1ccc(Nc2ccc(Cl)cc2)cc1`?
**A.** mutagenic call [1]: inactive; negative; mutagenic call [2]: active; positive

**Q.** How did the mutagenic call [1] turn out when `NCC(=O)CCC(=O)O` was run?
**A.** Its mutagenic call is “inactive; negative”.

**Q.** And the mutagenic call [4]?
**A.** Its mutagenic call is “inactive; negative”.

**Q.** And the mutagenic call (Test System: AMES SALMONELLA TYPHIMURIUM, Strain/Indicator: TA102, Metabolic Activation: NONE, Method: PREINCUBATION)?
**A.** Its mutagenic call is “active; positive”.

**Q.** What about the mutagenic call (Test System: AMES SALMONELLA TYPHIMURIUM, Strain/Indicator: TA104, Metabolic Activation: NONE, Method: PREINCUBATION) of the same compound?
**A.** Its mutagenic call is “active; positive”.

**Q.** And the mutagenic call [6]?
**A.** The mutagenic call was “inactive; negative”.

**Q.** Which mutagenic call [4] does the source give for `CCCCN(C[C@H](CO)OCc1ccccc1)N=O` here?
**A.** Its mutagenic call is “inactive; negative”.

**Q.** And the mutagenic call (Test System: AMES SALMONELLA TYPHIMURIUM, Strain/Indicator: TA100, Metabolic Activation: RAT, LIVER, S-9, PCB, Method: PREINCUBATION)?
**A.** The mutagenic call was “active; positive”.

**Q.** With `CCC(C(N)=O)(C(N)=O)c1ccccc1` as the compound, how does the mutagenic call (Test System: AMES SALMONELLA TYPHIMURIUM, Strain/Indicator: TA97, Metabolic Activation: HAMSTER, LIVER, S-9, AROCLOR 1254 (10 OR 30%), Method: PREINCUBATION) read?
**A.** Its mutagenic call is “inactive; negative”.

**Q.** And the mutagenic call (Test System: AMES SALMONELLA TYPHIMURIUM, Strain/Indicator: TA97, Metabolic Activation: NONE, Method: PREINCUBATION)?
**A.** The mutagenic call was “inactive; negative”.

**Q.** What about the mutagenic call (Test System: AMES SALMONELLA TYPHIMURIUM, Strain/Indicator: TA97, Metabolic Activation: RAT, LIVER, S-9, AROCLOR 1254 (10 OR 30%), Method: PREINCUBATION) of the same compound?
**A.** The mutagenic call was “inactive; negative”.

**Q.** What about the mutagenic call (Test System: AMES SALMONELLA TYPHIMURIUM, Strain/Indicator: TA98, Metabolic Activation: HAMSTER, LIVER, S-9, AROCLOR 1254 (10 OR 30%), Method: PREINCUBATION) of the same compound?
**A.** The mutagenic call was “inactive; negative”.

**Q.** And the mutagenic call [1]?
**A.** The mutagenic call was “inactive; negative”.

**Q.** And the mutagenic call (Test System: AMES SALMONELLA TYPHIMURIUM, Strain/Indicator: TA98, Metabolic Activation: RAT, LIVER, S-9, AROCLOR 1254 (10 OR 30%), Method: PREINCUBATION)?
**A.** The mutagenic call was “inactive; negative”.

**Q.** And the mutagenic call (Test System: AMES SALMONELLA TYPHIMURIUM, Strain/Indicator: TA100, Metabolic Activation: HAMSTER, LIVER, S-9, AROCLOR 1254 (10 OR 30%), Method: PREINCUBATION)?
**A.** The mutagenic call was “inactive; negative”.

**Q.** What about the mutagenic call [4] of the same compound?
**A.** Its mutagenic call is “inactive; negative”.

**Q.** And the mutagenic call (Test System: AMES SALMONELLA TYPHIMURIUM, Strain/Indicator: TA100, Metabolic Activation: RAT, LIVER, S-9, AROCLOR 1254 (10 OR 30%), Method: PREINCUBATION)?
**A.** Its mutagenic call is “inactive; negative”.

**Q.** What about the mutagenic call (Test System: AMES SALMONELLA TYPHIMURIUM, Strain/Indicator: TA1535, Metabolic Activation: HAMSTER, LIVER, S-9, AROCLOR 1254 (10 OR 30%), Method: PREINCUBATION) of the same compound?
**A.** The mutagenic call was “inactive; negative”.

**Q.** What about the mutagenic call [6] of the same compound?
**A.** Its mutagenic call is “inactive; negative”.

**Q.** What about the mutagenic call (Test System: AMES SALMONELLA TYPHIMURIUM, Strain/Indicator: TA1535, Metabolic Activation: RAT, LIVER, S-9, AROCLOR 1254 (10 OR 30%), Method: PREINCUBATION) of the same compound?
**A.** The mutagenic call was “inactive; negative”.

**Q.** `O=C(CCl)c1ccc(Cl)cc1Cl` was tested. Which mutagenic call (Test System: AMES SALMONELLA TYPHIMURIUM, Strain/Indicator: TA98, Metabolic Activation: HAMSTER, LIVER, S-9, AROCLOR 1254, Method: STANDARD PLATE) did it give?
**A.** Its mutagenic call is “inactive; negative”.

**Q.** What about the mutagenic call (Test System: AMES SALMONELLA TYPHIMURIUM, Strain/Indicator: TA98, Metabolic Activation: NONE, Method: STANDARD PLATE) of the same compound?
**A.** Its mutagenic call is “inactive; negative”.

**Q.** And the mutagenic call [3]?
**A.** Its mutagenic call is “inactive; negative”.

**Q.** And the mutagenic call (Test System: AMES SALMONELLA TYPHIMURIUM, Strain/Indicator: TA100, Metabolic Activation: HAMSTER, LIVER, S-9, AROCLOR 1254, Method: STANDARD PLATE)?
**A.** The mutagenic call was “inactive; negative”.

**Q.** What about the mutagenic call (Test System: AMES SALMONELLA TYPHIMURIUM, Strain/Indicator: TA100, Metabolic Activation: NONE, Method: STANDARD PLATE) of the same compound?
**A.** The mutagenic call was “inactive; negative”.

**Q.** What about the mutagenic call (Test System: AMES SALMONELLA TYPHIMURIUM, Strain/Indicator: TA100, Metabolic Activation: RAT, LIVER, S-9, AROCLOR 1254, Method: STANDARD PLATE) of the same compound?
**A.** Its mutagenic call is “inactive; negative”.

**Q.** And the mutagenic call (Test System: AMES SALMONELLA TYPHIMURIUM, Strain/Indicator: TA1535, Metabolic Activation: HAMSTER, LIVER, S-9, AROCLOR 1254, Method: STANDARD PLATE)?
**A.** The mutagenic call was “inactive; negative”.

**Q.** And the mutagenic call (Test System: AMES SALMONELLA TYPHIMURIUM, Strain/Indicator: TA1535, Metabolic Activation: NONE, Method: STANDARD PLATE)?
**A.** The mutagenic call was “inactive; negative”.

**Q.** And the mutagenic call (Test System: AMES SALMONELLA TYPHIMURIUM, Strain/Indicator: TA1535, Metabolic Activation: RAT, LIVER, S-9, AROCLOR 1254, Method: STANDARD PLATE)?
**A.** The mutagenic call was “inactive; negative”.

**Q.** What about the mutagenic call (Test System: AMES SALMONELLA TYPHIMURIUM, Strain/Indicator: TA1537, Metabolic Activation: HAMSTER, LIVER, S-9, AROCLOR 1254, Method: STANDARD PLATE) of the same compound?
**A.** Its mutagenic call is “inactive; negative”.

**Q.** And the mutagenic call (Test System: AMES SALMONELLA TYPHIMURIUM, Strain/Indicator: TA1537, Metabolic Activation: NONE, Method: STANDARD PLATE)?
**A.** The mutagenic call was “inactive; negative”.

**Q.** And the mutagenic call (Test System: AMES SALMONELLA TYPHIMURIUM, Strain/Indicator: TA1537, Metabolic Activation: RAT, LIVER, S-9, AROCLOR 1254, Method: STANDARD PLATE)?
**A.** Its mutagenic call is “inactive; negative”.

**Q.** And the mutagenic call (Test System: MOUSE LYMPHOMA, Strain/Indicator: L5178Y (TK+/TK-), Metabolic Activation: NONE, Method: SUSPENSION/PLATE)?
**A.** The mutagenic call was “inactive; negative. reevaluation of results: negative”.

**Q.** What about the mutagenic call (Test System: MOUSE LYMPHOMA, Strain/Indicator: L5178Y (TK+/TK-), Metabolic Activation: RAT, LIVER, S-9, AROCLOR 1254, Method: SUSPENSION/PLATE) of the same compound?
**A.** Its mutagenic call is “inactive; negative. reevaluation of results: negative”.
